Results taken from patent US12497405B2, “Bicyclic heterocycle compounds methods of use thereof for the treatment of herpes viruses” (Merck Sharp & Dohme LLC, priority 2019, dated 2025).

test system: HSV2; assay: Viral qPCR assay, HSV2; assay type: cell-based; conditions: Human alphaherpesvirus 2, 72 h, infected cells, viral genome copies by qPCR normalized to PPIA, read-out: HSV2 Cell EC50
Procedure, shortened: (§1)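 MRC5, Vero or MeWo cells were infected in suspension and added to compounds in a 10-point, 3-fold dilution series, then incubated ~72 hrs at 37° C. Lysates were proteinase K-treated, and viral genome copies were quantified by TaqMan qPCR against a plasmid standard curve and normalized to PPIA. EC50 came from a 4-parameter fit.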

| Compound | EC50 [nM] |
| --- | --- |
| Cc1nc2cc(C#N)c(O[C@H]3CCN4C(=O)OC[C@@H]4C3)cc2c(=O)n1Cc1ccc(Cl)cc1 [Example 56] | 109 |
| CC(=O)N1CCC(Oc2ccc3ccn(Cc4ccc(Cl)cc4)c(=O)c3c2)CC1 [Example 22] | 4280 |
| Cc1nc2cc(-c3cnn(C(F)F)c3)c(O[C@H]3CCN4C(=O)OC[C@@H]4C3)cc2c(=O)n1Cc1ccc(C#N)c(F)c1 [Example 66] | 34 |
| Cc1nc2ncc(O[C@H]3CCN4C(=O)OC[C@@H]4C3)cc2c(=O)n1Cc1ccc(Cl)cc1 [Example 69] | 1300 |
| Cc1nc2cc(-c3cc4n(n3)CCN(CC(F)(F)F)C4)c(O[C@H]3CCN4C(=O)OC[C@@H]4C3)cc2c(=O)n1Cc1ccc(Cl)cc1 [Example 147] | 96 |
| C[C@@H]1CN(C2CCOC2)CCN1c1ccc2ncn(Cc3ccc(Cl)cc3)c(=O)c2c1 (single isomer, unassigned) [Example 44] | 1250 |
| Cc1nc2cc(-c3cn4c(n3)CNCC4)c(O[C@H]3CCN4C(=O)OC[C@@H]4C3)cc2c(=O)n1Cc1ccc(C#N)cc1 [Example 73] | 3020 |
| Cc1nc2cc(-c3cnn(C)c3)c(O[C@H]3CCN4C(=O)OC[C@@H]4C3)cc2c(=O)n1Cc1ccc(Cl)cc1 [Example 52] | 19 |

molecular target: varicella zoster virus DNA polymerase (Varicella-zoster virus (strain Dumas) (HHV-3) (Human herpesvirus 3), UniProt P09252); assay: VZV polymerase assay (AlphaLISA); assay type: biochemical; conditions: VZV polymerase 0.4 nM, 30 min pre-incubation, 60 minute at 37° C.
Procedure: (§2) Human cytomegalovirus and varicella zoster virus DNA polymerases were expressed via baculovirus vector in SF21 cells and purified. Heterodimeric nucleic acid substrate used in the herpesvirus polymerase reactions were generated by annealing a 59-mer template to a 17-mer digoxigenin-labeled primer. Polymerase (HCMV final concentration of 0.2 nM; VZV final concentration of 0.4 nM) was combined with an inhibitor compound or DMSO in assay buffer (10 mM HEPES, pH 7.5, 25 mM KCl, 25 mM NaCl, 5 mM MgCl2, 5% glycerol, 0.67 mg/ml bovine serum albumin, and 1 mM tris(2-carboxyethyl)phosphine)), and this mixture was pre-incubated for 30 minutes at room temperature in 384-well microtiter plates. The polymerization reaction was initiated by the addition of template/primer substrate (final concentration: 1.6 nM), and dNTPs (final concentration: 24 nM dCTP, 24 nMdGTP, 16 nM dATP, 16 nM dTTP, and 0.8 nM biotin-dUTP). After a 60 minute incubation period at 37° C., the reactions were terminated using quench buffer (25 mM HEPES pH 7.5, 100 mM NaCl, 0.25% Tween-20, 12 mM EDTA, and 1 mg/ml bovine serum albumin). Incorporation of biotinylated UTP was detected with 2.5-5 μg/mL anti-DIG AlphaLISA acceptor beads and 5-10 μg/mL streptavidin AlphaLISA donor beads (PerkinElmer). Compound effects were normalized to the window defined by the controls (DMSO only and pre-quenched wells), and were fit using a 4-parameter algorithm to report an IC50.

| Compound | IC50 [nM] |
| --- | --- |
| Cc1nc2cc(C#N)c(O[C@H]3CCN4C(=O)OC[C@@H]4C3)cc2c(=O)n1Cc1ccc(Cl)cc1 [Example 56] | 6.5 |
| CC(=O)N1CCC(Oc2ccc3ccn(Cc4ccc(Cl)cc4)c(=O)c3c2)CC1 [Example 22] | 71 |
| Cc1nc2cc(-c3cnn(C(F)F)c3)c(O[C@H]3CCN4C(=O)OC[C@@H]4C3)cc2c(=O)n1Cc1ccc(C#N)c(F)c1 [Example 66] | 4.8 |
| Cc1nc2ncc(O[C@H]3CCN4C(=O)OC[C@@H]4C3)cc2c(=O)n1Cc1ccc(Cl)cc1 [Example 69] | 29 |
| Cc1nc2cc(-c3cc4n(n3)CCN(CC(F)(F)F)C4)c(O[C@H]3CCN4C(=O)OC[C@@H]4C3)cc2c(=O)n1Cc1ccc(Cl)cc1 [Example 147] | 12 |
| C[C@@H]1CN(C2CCOC2)CCN1c1ccc2ncn(Cc3ccc(Cl)cc3)c(=O)c2c1 (single isomer, unassigned) [Example 44] | 144 |
| Cc1nc2cc(-c3cn4c(n3)CNCC4)c(O[C@H]3CCN4C(=O)OC[C@@H]4C3)cc2c(=O)n1Cc1ccc(C#N)cc1 [Example 73] | 5.2 |
| Cc1nc2cc(-c3cnn(C)c3)c(O[C@H]3CCN4C(=O)OC[C@@H]4C3)cc2c(=O)n1Cc1ccc(Cl)cc1 [Example 52] | 0.44 |

molecular target: Human cytomegalovirus DNA polymerase (Human cytomegalovirus (strain AD169) (HHV-5) (Human herpesvirus 5), UniProt P08546); assay: CMV polymerase assay (AlphaLISA); assay type: biochemical; conditions: HCMV polymerase 0.2 nM, 30 min pre-incubation, 60 minute at 37° C.
Procedure: as §2

| Compound | IC50 [nM] |
| --- | --- |
| Cc1nc2cc(C#N)c(O[C@H]3CCN4C(=O)OC[C@@H]4C3)cc2c(=O)n1Cc1ccc(Cl)cc1 [Example 56] | 2.8 |
| CC(=O)N1CCC(Oc2ccc3ccn(Cc4ccc(Cl)cc4)c(=O)c3c2)CC1 [Example 22] | 386 |
| Cc1nc2cc(-c3cnn(C(F)F)c3)c(O[C@H]3CCN4C(=O)OC[C@@H]4C3)cc2c(=O)n1Cc1ccc(C#N)c(F)c1 [Example 66] | 2.2 |
| Cc1nc2ncc(O[C@H]3CCN4C(=O)OC[C@@H]4C3)cc2c(=O)n1Cc1ccc(Cl)cc1 [Example 69] | 35 |
| Cc1nc2cc(-c3cc4n(n3)CCN(CC(F)(F)F)C4)c(O[C@H]3CCN4C(=O)OC[C@@H]4C3)cc2c(=O)n1Cc1ccc(Cl)cc1 [Example 147] | 7 |
| C[C@@H]1CN(C2CCOC2)CCN1c1ccc2ncn(Cc3ccc(Cl)cc3)c(=O)c2c1 (single isomer, unassigned) [Example 44] | 77 |
| Cc1nc2cc(-c3cn4c(n3)CNCC4)c(O[C@H]3CCN4C(=O)OC[C@@H]4C3)cc2c(=O)n1Cc1ccc(C#N)cc1 [Example 73] | 1 |
| Cc1nc2cc(-c3cnn(C)c3)c(O[C@H]3CCN4C(=O)OC[C@@H]4C3)cc2c(=O)n1Cc1ccc(Cl)cc1 [Example 52] | 0.3 |

test system: CMV; assay: Viral qPCR assay, CMV; assay type: cell-based; conditions: Human betaherpesvirus 5, 72 h, infected cells, viral genome copies by qPCR normalized to PPIA, read-out: CMV Cell EC50
Procedure, shortened: as §1

| Compound | EC50 [nM] |
| --- | --- |
| Cc1nc2cc(C#N)c(O[C@H]3CCN4C(=O)OC[C@@H]4C3)cc2c(=O)n1Cc1ccc(Cl)cc1 [Example 56] | 64 |
| CC(=O)N1CCC(Oc2ccc3ccn(Cc4ccc(Cl)cc4)c(=O)c3c2)CC1 [Example 22] | 4240 |
| Cc1nc2cc(-c3cnn(C(F)F)c3)c(O[C@H]3CCN4C(=O)OC[C@@H]4C3)cc2c(=O)n1Cc1ccc(C#N)c(F)c1 [Example 66] | 50 |
| Cc1nc2ncc(O[C@H]3CCN4C(=O)OC[C@@H]4C3)cc2c(=O)n1Cc1ccc(Cl)cc1 [Example 69] | 307 |
| Cc1nc2cc(-c3cc4n(n3)CCN(CC(F)(F)F)C4)c(O[C@H]3CCN4C(=O)OC[C@@H]4C3)cc2c(=O)n1Cc1ccc(Cl)cc1 [Example 147] | 229 |
| C[C@@H]1CN(C2CCOC2)CCN1c1ccc2ncn(Cc3ccc(Cl)cc3)c(=O)c2c1 (single isomer, unassigned) [Example 44] | 521 |
| Cc1nc2cc(-c3cn4c(n3)CNCC4)c(O[C@H]3CCN4C(=O)OC[C@@H]4C3)cc2c(=O)n1Cc1ccc(C#N)cc1 [Example 73] | 4180 |
| Cc1nc2cc(-c3cnn(C)c3)c(O[C@H]3CCN4C(=O)OC[C@@H]4C3)cc2c(=O)n1Cc1ccc(Cl)cc1 [Example 52] | 22 |

test system: HSV1; assay: Viral qPCR assay, HSV1; assay type: cell-based; conditions: Human alphaherpesvirus 1, 72 h, infected cells, viral genome copies by qPCR normalized to PPIA, read-out: HSV1 Cell EC50
Procedure, shortened: as §1

| Compound | EC50 [nM] |
| --- | --- |
| Cc1nc2cc(C#N)c(O[C@H]3CCN4C(=O)OC[C@@H]4C3)cc2c(=O)n1Cc1ccc(Cl)cc1 [Example 56] | 124 |
| CC(=O)N1CCC(Oc2ccc3ccn(Cc4ccc(Cl)cc4)c(=O)c3c2)CC1 [Example 22] | 5630 |
| Cc1nc2cc(-c3cnn(C(F)F)c3)c(O[C@H]3CCN4C(=O)OC[C@@H]4C3)cc2c(=O)n1Cc1ccc(C#N)c(F)c1 [Example 66] | 43 |
| Cc1nc2ncc(O[C@H]3CCN4C(=O)OC[C@@H]4C3)cc2c(=O)n1Cc1ccc(Cl)cc1 [Example 69] | 870 |
| Cc1nc2cc(-c3cc4n(n3)CCN(CC(F)(F)F)C4)c(O[C@H]3CCN4C(=O)OC[C@@H]4C3)cc2c(=O)n1Cc1ccc(Cl)cc1 [Example 147] | 274 |
| C[C@@H]1CN(C2CCOC2)CCN1c1ccc2ncn(Cc3ccc(Cl)cc3)c(=O)c2c1 (single isomer, unassigned) [Example 44] | 1460 |
| Cc1nc2cc(-c3cn4c(n3)CNCC4)c(O[C@H]3CCN4C(=O)OC[C@@H]4C3)cc2c(=O)n1Cc1ccc(C#N)cc1 [Example 73] | 3880 |
| Cc1nc2cc(-c3cnn(C)c3)c(O[C@H]3CCN4C(=O)OC[C@@H]4C3)cc2c(=O)n1Cc1ccc(Cl)cc1 [Example 52] | 39 |
